Laboratory results from patent US11279733B2, “Peptide antibiotics” (priority 2017, dated 2022).
In brackets after ≈: the same amount, converted by molar mass. Positions of bridges follow the written chain, without caps; N, C: chain ends. Non-standard residues stand in square brackets, D forms with d. Residues, ends and D or L forms follow the SMILES beside them. *: point of attachment. Bip = N[C@@H](Cc1ccc(-c2ccccc2)cc1)C(=O)O; Decanoyl(3R-OH) = CCCCCCC[C@@H](O)CC(=O)*; dBip = N[C@H](Cc1ccc(-c2ccccc2)cc1)C(=O)O; dDab = NCC[C@@H](N)C(=O)O; Dab = NCC[C@H](N)C(=O)O

How the values were obtained:
E. coli ATCC 25922 = conditions: ATCC 25922
Summary of the method: (§1)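 Mid-log cultures grown in Mueller Hinton broth at 37° C were tested by 2-fold broth microdilution at 5×10^5 CFU/mL final. Compounds were dissolved in water and tested over a final range of 32 to 0.015 μg/mL.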

[1] = system: S. aureus ATCC 25923, MSSA; conditions: ATCC 25923
Summary of the method: as §1

K. pneumoniae ATCC 13883 = conditions: ATCC 13883
Summary of the method: as §1

[2] = system: P. aeruginosa GN_043, PmxR; conditions: P. aeruginosa GN_043, PmxR
Summary of the method: as §1

[3] = system: K. pneumoniae ATCC BAA-2146, NDM-1 pos; conditions: ATCC BAA-2146
Summary of the method: as §1

[4] = system: K. pneumoniae GN_106, PmxR; conditions: GN 106, PmxR
Summary of the method: as §1

A. baumannii ATCC 19606 = conditions: ATCC 19606
Summary of the method: as §1

A. baumannii GN_093 PmxR = conditions: GN 093 PmxR
Summary of the method: as §1

[5] = system: K. pneumoniae ATCC 700603, MDR; conditions: ATCC 700603
Summary of the method: as §1

P. aeruginosa ATCC 27853 = conditions: ATCC 27853
Summary of the method: as §1

[6] = system: K. pneumoniae GN_102 PmxR; conditions: GN 102 PmxR
Summary of the method: as §1

[7] = system: P. aeruginosa GN_105, PmxR; conditions: GN 105, PmxR
Summary of the method: as §1

in vitro = conditions: human
Summary of the method: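 HK2 cells were seeded at 2000 per well in DMEM/F12 with 10% FBS and left to attach for 24 h at 37 °C, 5% CO2. They were then exposed for 24 h to 3-fold peptide dilutions starting from 600 μM solutions in quadruplicate. LDH release was read at 450 nm, and CC50 was fitted from dose-response curves.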

Row | SMILES | MIC E. coli ATCC 25922 (E. coli ATCC 25922) [µg/mL] | MIC S. aureus ATCC 25923, MSSA [1] [µg/mL] | MIC K. pneumoniae ATCC 13883 (K. pneumoniae ATCC 13883) [µg/mL] | MIC P. aeruginosa GN_043, PmxR [2] [µg/mL] | MIC K. pneumoniae ATCC BAA-2146, NDM-1 pos [3] [µg/mL] | MIC K. pneumoniae GN_106, PmxR [4] [µg/mL] | MIC A. baumannii ATCC 19606 (A. baumannii ATCC 19606) [µg/mL] | MIC A. baumannii GN_093 PmxR (A. baumannii GN_093 PmxR) [µg/mL] | MIC K. pneumoniae ATCC 700603, MDR [5] [µg/mL] | MIC P. aeruginosa ATCC 27853 (P. aeruginosa ATCC 27853) [µg/mL] | MIC K. pneumoniae GN_102 PmxR [6] [µg/mL] | MIC P. aeruginosa GN_105, PmxR [7] [µg/mL] | CC50 at 24 h (in vitro) [µM]
1 | CCCCCCC[C@@H](O)CC(=O)N[C@H](CCN)C(=O)N[C@H]1CCNC(=O)[C@H]([C@@H](C)O)NC(=O)[C@H](CCN)NC(=O)[C@H](CCN)NC(=O)[C@H](Cc2ccc(-c3ccccc3)cc2)NC(=O)[C@@H](Cc2ccccc2)NC(=O)[C@H](CCN)NC1=O [compound 5607, 3(R)OH-nC9CO-D-Dab-cyc[L-Dab-L-Dab-D-Phe-L-Bip-L-Dab-L-Dab-L-Thr]] ({Decanoyl(3R-OH)}-[dDab][Dab][Dab][dF][Bip][Dab][Dab]T; lactam 2-C) | 8 (≈ 7 µM) | 4 (≈ 3.5 µM) | 16 (≈ 14 µM) | 2 (≈ 1.75 µM) | 4 (≈ 3.5 µM) | 32 (≈ 28 µM) | 8 (≈ 7 µM) | >32 | 4 (≈ 3.5 µM) | 4 (≈ 3.5 µM) | 32 (≈ 28 µM) | 2 (≈ 1.75 µM) | 19
2 | CCCCCCC[C@@H](O)CC(=O)N[C@H](CCN)C(=O)N[C@H]1CCNC(=O)[C@H]([C@@H](C)O)NC(=O)[C@H](CCN)NC(=O)[C@H](CCN)NC(=O)[C@H](CC(C)C)NC(=O)[C@@H](Cc2ccc(-c3ccccc3)cc2)NC(=O)[C@H](CCN)NC1=O [compound 5608, 3(R)OH-nC9CO-D-Dab-cyc[L-Dab-L-Dab-D-Bip-L-Leu-L-Dab-L-Dab-L-Thr]] ({Decanoyl(3R-OH)}-[dDab][Dab][Dab][dBip]L[Dab][Dab]T; lactam 2-C) | 2 (≈ 1.8 µM) | 4 (≈ 3.61 µM) | 2 (≈ 1.8 µM) | 1 (≈ 0.902 µM) | 2 (≈ 1.8 µM) | 8 (≈ 7.22 µM) | 4 (≈ 3.61 µM) | 16 (≈ 14.4 µM) | 2 (≈ 1.8 µM) | 2 (≈ 1.8 µM) | 4 (≈ 3.61 µM) | 2 (≈ 1.8 µM) | 37
3 | CCCCCCC[C@@H](O)CC(=O)N[C@H](Cc1c[nH]c2ccccc12)C(=O)N[C@H]1CCNC(=O)[C@H]([C@@H](C)O)NC(=O)[C@H](CCN)NC(=O)[C@H](CCN)NC(=O)[C@H](CC(C)C)NC(=O)[C@@H](Cc2ccccc2)NC(=O)[C@H](CCN)NC1=O [compound 6394, 3(R)OH-nC9CO-D-Trp-cyc[L-Dab-L-Dab-D-Phe-L-Leu-L-Dab-L-Dab-L-Thr]] ({Decanoyl(3R-OH)}-[dW][Dab][Dab][dF]L[Dab][Dab]T; lactam 2-C) | >64 | >32 | >64 | >32 | >64 | >32 | >64 | >32 | >64 | 64 (≈ 57.2 µM) | >32 | >32 | > 300
